Results taken from paper PMC4850424 (Molecular Cell, 2016).

How the values were obtained:
[1] = tested on: histone octamers / chromatin (H4K5 and H4K8); details: [14C] butyryl-CoA, in vitro; ref Chen et al., 2007; cited from earlier work
testis-derived Brdt = assay: JQ1 inhibition of Brdt binding to H4 peptides; parameters: species or system mouse; details: JQ1 added to extract prior to peptide pull-down; Figure 6C lower left

| Compound | lysine butyrylation of core histones [1] | inhibition of Brdt binding to H4K5acK8bu peptide (testis-derived Brdt) | inhibition of Brdt binding to acetylated H4 peptide (testis-derived Brdt) |
| --- | --- | --- | --- |
| CREB binding protein (CBP): histone acyltransferase | can catalyze lysine butyrylation |  |  |
| Cc1sc2c(c1C)C(c1ccc(Cl)cc1)=N[C@@H](CC(=O)OC(C)(C)C)c1nnc(C)n1-2 [JQ1] |  | abolished the binding | abolished the binding |
| p300: Flag tagged human p300 (324-2094), recombinant from baculovirus-infected insect cells | can catalyze lysine butyrylation |  |  |
